In article PMC1997131, “Enzymes involved in DNA ligation and end-healing in the radioresistant bacterium Deinococcus radiodurans” (BMC Molecular Biology, 2007):

Biological target: T1, LigA (Deinococcus radiodurans, UniProt Q9RSQ5)
T1 construct: full-length, N-terminal hexahistidine tag (pRSETb, kept), E. coli BL21(DE3)
Assay: adenylyltransferase assay, SDS-PAGE autoradiography
Assay type: biochemical
Settings: 0.1 μM [32P]-NAD+, 1 mM MnCl2, pH 6.8, 30 °C; covalent AMP adduct; labelled compound

NC(=O)c1ccc[n+]([C@@H]2O[C@H](COP(=O)(O)OP(=O)(O)OC[C@H]3O[C@@H](n4cnc5c(N)ncnc54)[C@H](O)[C@@H]3O)[C@@H](O)[C@H]2O)c1 [NAD^+]
adenylyltransferase assay, SDS-PAGE autoradiography: in an adenylyltransferase activity assay LigA wt formed an AMP-ligase complex
